Results published in patent US6365769B1, “Perfluoroalkyl halides and derivatives” (3M Innovative Properties Company, priority 1991, dated 2002).

What was measured:
Format in all cases: physicochemical
[1] = Surface tension of the aqueous solution, Du Nouy tensiometer; conditions: for SURFACE TENSION (dynes/cm) 100 ppm: 100 ppm in water; for SURFACE TENSION (dynes/cm) 500 ppm: 500 ppm in water
Method: (§1) The materials of the invention were diluted in water to 0.05% (500 ppm) and/or 0.01% (100 ppm), and the surface tension of the aqueous solution was measured using a Du Nouy tensiometer. Foam height was measured as volume in a graduated cylinder. Half-life time (t ½) is the time for half the liquid present in the foam to drain from the foam. The foam was generated by a wire wisk in a Hobart mixer. Thus, 200 mL of surfactant solution to be tested is placed in a bowl of Hobart Model N-50 mixer equipped with a wire wisk stirrer and stirred for 3 minutes at medium speed (setting 2=300 rpm). The foam produced was immediately transferred to a 4000 mL graduated cylinder for measuring foam height and half-life time.

[2] = Foam half-life time (drainage of half the liquid); conditions: 500 ppm in water
Method: as §1

[3] = Foam height, foam generated in Hobart mixer; conditions: 500 ppm in water; 200 mL solution stirred 3 minutes
Method: as §1

Row | Compound | SURFACE TENSION (dynes/cm) 100 ppm [1] [dynes/cm] | SURFACE TENSION (dynes/cm) 500 ppm [1] [dynes/cm] | other results
1 | O=C(CC(C(=O)OCCC(F)(F)C(F)(F)C(F)(F)C(F)(F)F)S(=O)(=O)[O-])OCCC(F)(F)C(F)(F)C(F)(F)C(F)(F)F.[Na+] (centres unmarked) [C14, reference compound] | 30.5 | 21.7 | 
2 | CCCCCCCCCC(O)C/[N+](C)=C/CCCS(=O)(=O)[O-] (centres unmarked) [Example 71] |  | 17.5 | 
3 | N.O=S(=O)(O)OCCC(F)(F)C(F)(F)C(F)(F)C(F)(F)C(F)(F)C(F)(F)C(F)(F)C(F)(F)F [Example 43, C8F17CH2CH2OSO3NH4] |  |  | HALF-LIFE TIME (SEC) / t ½ [2]: <30 s; FOAM HEIGHT (VOLUME) [3]: 400; SURFACE TENSION (dyne/cm) 500 ppm ([1]; 500 ppm as printed (second surface tension column of Tables 12, 14)): 22.8 dyne/cm; SURFACE TENSION (dyne/cm) 500 ppm ([1]; 500 ppm in water (first surface tension column of Tables 12, 14)): 19.5 dyne/cm
4 | C8F17CH2CH2S(CH2CH2O)12(CH2CH(CH3)O)3H [Example 70] |  | 23.1 | 
5 | CC(C)(CNC(=O)CCNCCNCCC(=O)OCCC(F)(F)C(F)(F)C(F)(F)C(F)(F)C(F)(F)C(F)(F)C(F)(F)C(F)(F)F)CS(=O)(=O)[O-].[K+] [Example 55, C8F17CH2CH2OC(O)CH2CH2NHCH2CH2NHCH2CH2C(O)NHCH2C(CH3)2CH2SO3K] | 26.2 | 20.1 | 
6 | C8F17C2H4O(C2H4O)nH [Example 69] |  | 21.7 | 
7 | O=C(CC(C(=O)OCCC(F)(F)C(F)(F)C(F)(F)C(F)(F)F)S(=O)(=O)[O-])OCCC(F)(F)C(F)(F)C(F)(F)C(F)(F)F.[Na+] (centres unmarked) [Example 45, C4F9CH2CH2OC(O)CH2CH(SO3Na)C(O)OCH2CH2C4F9] | 24.2 | 17.7 | 
8 | CCS(=O)(=O)[O-].CC[N+](C)(C)CCOC(=O)CCNCCNCCC(=O)OCCC(F)(F)C(F)(F)C(F)(F)C(F)(F)C(F)(F)C(F)(F)C(F)(F)C(F)(F)F [Example 61, [C8F17CH2CH2OC(O)CH2CH2NHCH2CH2NHCH2CH2C(O)OCH2CH2N^+(CH3)2CH2CH3] [CH3CH2SO^−3]] | 21.3 | 19.9 | 
9 | CC(C)(CNC(=O)CCSCCC(F)(F)C(F)(F)C(F)(F)C(F)(F)C(F)(F)C(F)(F)C(F)(F)C(F)(F)F)CS(=O)(=O)[O-].[K+] [Example 47, C8F17CH2CH2SCH2CH2C(O)NHCH2C(CH3)2CH2SO3K] | 24.0 | 19.0 | 
